# Assay results from patent US20230048678A1, “ICAN DERIVATIVES FOR ANTIFUNGAL USE” (DEBRECENI EGYETEM, priority 2019, published 2023).
# What was measured:
# Type in all cases: cell-based
# [1] = tested on: C. parapsilosis ATCC 22019; test: CLSI broth microdilution susceptibility (Table 1); conditions: 48 h, 35° C.
# Description: (§1) ICAN has 3 key moieties, namely the amino, naphthalene and isonitrile. To find out which ones of them are essential for the antifungal behavior and to design more efficient derivatives, comparative studies were carried out, where one of the moieties was exchanged or eliminated. All ICAN derivatives were tested against C. albicans SC5314, C. krusei ATCC 6258 and C. parapsilosis ATCC 22019. The antifungal agents were dissolved in 100% DMSO and diluted further in RPMI-1640 (with L-glutamine but without bicarbonate) and buffered to pH 7.0 with 0.165 M morpholinopropanesulfonic acid (MOPS). MICs were read visually after 48-h incubation at 35° C. using the partial (50%) inhibition (for ICAN derivatives) (PI) and total inhibition (for AMB and ICAN derivatives) (TI) criteria. MICs were determined at least twice.
# (§2) The tested C. albicans, C. tropicalis, C. parapsilosis, C. glabrata and C. krusei ATCC strains and clinical isolates are listed in Table 2. MICs were determined according to the CLSI M27-A3 [22]. Antifungal agents were dissolved in 100% DMSO and diluted further in RPMI-1640 (with L-glutamine but without bicarbonate) (Sigma, Budapest, Hungary), and buffered to pH 7.0 with 0.165 M morpholinopropanesulfonic acid (MOPS; Sigma, Budapest, Hungary). The final concentration ranges used for AMB and ICAN derivatives were 0.125 to 4 μg/ml and 0.04 to 20 μg/ml, respectively. Yeast cell suspensions were prepared in RPMI 1640 medium and were adjusted to give a final inoculum concentration of 0.5×10^3 to 2.5×10^3 cells/ml. MICs were read visually after 48-h incubation at 35° C. using the partial (50%) inhibition (for ICAN derivatives) (PI) and total inhibition (for AMB and ICAN derivatives) (TI) criteria. MICs were determined at least twice. For amphotericin B isolates with MIC values of ≤2 mg/L were considered wild-types. [Pfaller M A, 2012]
# C. albicans SC5314 = test: CLSI broth microdilution susceptibility (Table 1); conditions: 48 h, 35° C.
# Description: as §1, §2
# C. krusei ATCC 6258 = test: CLSI broth microdilution susceptibility (Table 1); conditions: 48 h, 35° C.
# Description: as §1, §2
# [2] = tested on: clinical Candida isolates (C. albicans, C. krusei, C. tropicalis, C. glabrata, C. parapsilosis); test: Broth microdilution, MIC summarised over all clinical Candida isolates; conditions: range or bound over all tested isolates of five Candida species
# Description: The present inventors have discovered that 1-amino-5-isocyanonaphthalene (ICAN) and its derivatives exert excellent antifungal activity against a broad range of Candida species. […] Nevertheless, proper formulation and/or substitution with solubility enhancer groups on the naphthalene core may increase its effectiveness. Based on MIC values (MICPI=0.04−0.3 μg/ml MICTI=0.6 μg/ml) and its low cytotoxicity 1,1-N-dimethylamino-5-isocyanonaphthalene (DIMICAN) was selected to be tested on clinical Candida isolates. […] Amphotericin B (AMB) is an antifungal agent which is effective against a number of medically important fungi. The in vivo applicability of DIMICAN was tested on immunosuppressed mice and control experiments were also conducted with amphotericin B. In the model of acute invasive candidiasis, neutropenic mice were infected intravenously with C. albicans isolate 3666 (3×10^4 cfu/mouse) to establish an acute infection, and all untreated control animals died within 6 days. […]
# The tested C. albicans, C. tropicalis, C. parapsilosis, C. glabrata and C. krusei ATCC strains and clinical isolates are listed in Table 2. MICs were determined according to the CLSI M27-A3 [22]. […] MICs were read visually after 48-h incubation at 35° C. using the partial (50%) inhibition (for ICAN derivatives) (PI) and total inhibition (for AMB and ICAN derivatives) (TI) criteria. MICs were determined at least twice. […]
structure (smiles),measurement,setting,value
"[C-]#[N+]c1cccc2c(N(C)C)cccc12 [DIMICAN, N,N-dimethyl-1-amino-5-isocyanonaphthalene]",MICPI,[1]; partial (50%) inhibition,0.15 µg/mL
same,MICTI,[1]; total inhibition,0.6 µg/mL
same,MICPI,C. albicans SC5314; partial (50%) inhibition,≤0.04 µg/mL
same,MICTI,C. albicans SC5314; total inhibition,0.6 µg/mL
same,MICPI,C. krusei ATCC 6258; partial (50%) inhibition,0.15 µg/mL
same,MICTI,C. krusei ATCC 6258; total inhibition,0.3 µg/mL
same,total minimum inhibitory concentration (MICTI),[2],0.08 to 1.25 µg/mL
